Reference: patent US12023333B2, “Phenyl-sulfamoyl.benzoyc acids as ERAP1 modulators” (GREY WOLF THERAPEUTICS LIMITED, priority 2019, dated 2024)
pIC50: −log10 of the molar value.

Target: T1, Purified ERAP1(37-941)-10His (ERAP1) (Homo sapiens, UniProt Q9NZ08)
T1 construct: Purified ERAP1(37-941)-10His (ERAP1); 10His (C)
Assay: ERAP1 mediated hydrolysis of an amide substrate measured in a biochemical system (10-mer decapeptide substrate)
Details: 10-mer substrate, 23° C. for 1 h, excitation 279 nm and emission 355 nm; read-out: IC50 vs Decapeptide WRVYEKC(Dnp)ALK-acid (where Dnp is Dinitrophenyl maleimide) (10-mer)
How it was run: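 ERAP1(37-941)-10His preincubated with compound in 25 mM Bis-tris propane, 0.05% HPMC, pH 7.75, then reacted 1 h at 23 °C with 10-mer WRVYEKC(Dnp)ALK (100 μM solution added in equal volume). Fluorescence read at ex 279/em 355 nm; IC50 from 4-parameter fit.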

T1 sequence (Q9NZ08 37-941): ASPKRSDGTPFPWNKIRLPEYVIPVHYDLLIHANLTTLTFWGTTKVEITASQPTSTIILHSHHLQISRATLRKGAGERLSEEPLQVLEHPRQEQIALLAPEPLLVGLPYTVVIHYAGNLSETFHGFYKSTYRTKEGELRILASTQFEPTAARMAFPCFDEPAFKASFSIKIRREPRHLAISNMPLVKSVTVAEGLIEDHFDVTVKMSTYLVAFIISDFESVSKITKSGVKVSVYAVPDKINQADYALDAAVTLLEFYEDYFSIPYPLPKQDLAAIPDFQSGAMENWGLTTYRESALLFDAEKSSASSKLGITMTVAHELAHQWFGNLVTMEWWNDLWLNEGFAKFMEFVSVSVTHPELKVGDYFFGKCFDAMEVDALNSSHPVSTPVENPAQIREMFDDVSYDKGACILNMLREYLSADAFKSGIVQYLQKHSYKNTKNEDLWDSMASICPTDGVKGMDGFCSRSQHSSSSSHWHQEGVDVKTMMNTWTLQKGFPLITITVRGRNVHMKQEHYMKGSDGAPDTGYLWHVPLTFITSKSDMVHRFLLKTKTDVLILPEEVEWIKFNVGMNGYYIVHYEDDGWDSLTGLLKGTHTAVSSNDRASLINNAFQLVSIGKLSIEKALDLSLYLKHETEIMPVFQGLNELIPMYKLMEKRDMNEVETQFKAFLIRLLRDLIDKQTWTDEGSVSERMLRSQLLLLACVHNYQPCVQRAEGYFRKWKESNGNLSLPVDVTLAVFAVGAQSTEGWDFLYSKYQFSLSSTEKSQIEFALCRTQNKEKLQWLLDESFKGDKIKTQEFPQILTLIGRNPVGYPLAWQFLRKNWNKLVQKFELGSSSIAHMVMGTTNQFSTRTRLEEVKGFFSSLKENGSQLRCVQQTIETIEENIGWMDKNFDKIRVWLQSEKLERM

pIC50, > 6.30:
CCc1ccc(C(=O)O)cc1S(=O)(=O)Nc1cc(S(C)(=O)=O)ccc1-c1ccc(C#N)s1 [Example 120, 3-(N-(2-(5-cyanothiophen-2-yl)-5-(methylsulfonyl)phenyl)sulfamoyl)-4-ethylbenzoic acid]
COc1ccc(C(=O)O)cc1S(=O)(=O)Nc1cc(C#N)ccc1-n1cccc1 [Example 121, 3-(N-(5-cyano-2-(pyrrol-1-yl)phenyl)sulfamoyl)-4-methoxybenzoic acid]
O=C(O)c1ccc(C2CC2)c(S(=O)(=O)Nc2cc(C(F)(F)F)ccc2-c2ccc(F)s2)c1 [Example 122, 4-cyclopropyl-3-(N-(2-(5-fluorothiophen-2-yl)-5-(trifluoromethyl)phenyl)sulfamoyl)benzoic acid]
CS(=O)(=O)c1ccc(-c2ccc(Cl)s2)c(NS(=O)(=O)c2cc(C(=O)O)ccc2C2CC2)c1 [Example 123, 3-(N-(2-(5-chlorothiophen-2-yl)-5-(methylsulfonyl)phenyl)sulfamoyl)-4-cyclopropylbenzoic acid]
CS(=O)(=O)c1ccc(-c2ccc(C#N)s2)c(NS(=O)(=O)c2cc(C(=O)O)ccc2C2CC2)c1 [Example 124, 3-(N-(2-(5-cyanothiophen-2-yl)-5-(methylsulfonyl)phenyl)sulfamoyl)-4-cyclopropylbenzoic acid]
COc1ccc(C(=O)O)cc1S(=O)(=O)Nc1cc(C(F)(F)F)ccc1-c1ccc(C#N)s1 [Example 125, 3-(N-(2-(5-cyanothiophen-2-yl)-5-(trifluoromethyl)phenyl)sulfamoyl)-4-methoxybenzoic acid]
N#Cc1ccc(-c2ccc(C#N)s2)c(NS(=O)(=O)c2cc(C(=O)O)ccc2C2CC2)c1 [Example 126, 3-(N-(5-cyano-2-(5-cyanothiophen-2-yl)phenyl)sulfamoyl)-4-cyclopropylbenzoic acid]
N#Cc1ccc(-c2ccc(C(F)(F)F)cc2NS(=O)(=O)c2cc(C(=O)O)ccc2C2CC2)s1 [Example 127, 3-(N-(2-(5-cyanothiophen-2-yl)-5-(trifluoromethyl)phenyl)sulfamoyl)-4-cyclopropylbenzoic acid]
CCc1ccc(C(=O)O)cc1S(=O)(=O)Nc1cc(C(F)(F)F)ccc1-c1nccs1 [Example 128, 4-ethyl-3-(N-(2-(thiazol-2-yl)-5-(trifluoromethyl)phenyl)sulfamoyl)benzoic acid]
CCc1ccc(C(=O)O)cc1S(=O)(=O)Nc1cc(C(F)(F)F)ccc1-c1cncs1 [Example 129, 4-ethyl-3-(N-(2-(thiazol-5-yl)-5-(trifluoromethyl)phenyl)sulfamoyl)benzoic acid]
CCc1ccc(C(=O)O)cc1S(=O)(=O)Nc1cc(C(F)(F)F)c(F)cc1-n1cccc1 [Example 130, 4-ethyl-3-(N-(4-fluoro-2-(pyrrol-1-yl)-5-(trifluoromethyl)phenyl)sulfamoyl)benzoic acid]
CCc1ccc(C(=O)O)cc1S(=O)(=O)Nc1cc(C(F)(F)F)c(Cl)cc1-n1cccc1 [Example 131, 3-(N-(4-chloro-2-(pyrrol-1-yl)-5-(trifluoromethyl)phenyl)sulfamoyl)-4-ethylbenzoic acid]
N#Cc1cc(NS(=O)(=O)c2cc(C(=O)O)ccc2C2CC2)c(-c2ccccn2)cc1Cl [Example 132, 3-(N-(4-chloro-5-cyano-2-(pyridin-2-yl)phenyl)sulfamoyl)-4-cyclopropylbenzoic acid]
N#Cc1cc(NS(=O)(=O)c2cc(C(=O)O)ccc2C2CC2)c(-c2cccc(F)c2)cc1Cl [Example 133, 3-(N-(5-chloro-4-cyano-3′-fluoro-[1,1′-biphenyl]-2-yl)sulfamoyl)-4-cyclopropylbenzoic acid]
N#Cc1cc(NS(=O)(=O)c2cc(C(=O)O)ccc2C2CC2)c(-c2ccc(Cl)s2)cc1Cl [Example 134, 3-(N-(4-chloro-2-(5-chlorothiophen-2-yl)-5-cyanophenyl)sulfamoyl)-4-cyclopropylbenzoic acid]
O=C(O)c1ccc(C2CC2)c(S(=O)(=O)Nc2cc(-c3ccns3)ccc2-c2ccccc2)c1 [Example 135, 4-cyclopropyl-3-(N-(4-(isothiazol-5-yl)-[1,1′-biphenyl]-2-yl)sulfamoyl)benzoic acid]
Cc1sncc1-c1ccc(-c2cccc(F)c2)c(NS(=O)(=O)c2cc(C(=O)O)ccc2C2CC2)c1 [Example 136, 4-cyclopropyl-3-(N-(3′-fluoro-4-(5-methylisothiazol-4-yl)-[1,1′-biphenyl]-2-yl)sulfamoyl)benzoic acid]
O=C(O)c1ccc(C2CC2)c(S(=O)(=O)Nc2cc(-c3ccns3)ccc2-c2cccc(F)c2)c1 [Example 137, 4-cyclopropyl-3-(N-(3′-fluoro-4-(isothiazol-5-yl)-[1,1′-biphenyl]-2-yl)sulfamoyl)benzoic acid]
Cc1sncc1-c1ccc(-c2cccnc2)c(NS(=O)(=O)c2cc(C(=O)O)ccc2C2CC2)c1 [Example 138, 4-cyclopropyl-3-(N-(5-(5-methylisothiazol-4-yl)-2-(pyridin-3-yl)phenyl)sulfamoyl)benzoic acid]
O=C(O)c1ccc(C2CC2)c(S(=O)(=O)Nc2cc(-c3ccns3)ccc2-c2ccccn2)c1 [Example 139, 4-cyclopropyl-3-(N-(5-(isothiazol-5-yl)-2-(pyridin-2-yl)phenyl)sulfamoyl)benzoic acid]
Cc1ccc(-c2ccc(-c3cnsc3C)cc2NS(=O)(=O)c2cc(C(=O)O)ccc2C2CC2)s1 [Example 140, 4-cyclopropyl-3-(N-(5-(5-methylisothiazol-4-yl)-2-(5-methylthiophen-2-yl)phenyl)sulfamoyl)benzoic acid]
O=C(O)c1ccc(C2CC2)c(S(=O)(=O)Nc2cc(-c3ccns3)ccc2-c2ccc(Cl)s2)c1 [Example 141, 3-(N-(2-(5-chlorothiophen-2-yl)-5-(isothiazol-5-yl)phenyl)sulfamoyl)-4-cyclopropylbenzoic acid]
Cc1sncc1-c1ccc(-c2ccc(F)s2)c(NS(=O)(=O)c2cc(C(=O)O)ccc2C2CC2)c1 [Example 142, 4-cyclopropyl-3-(N-(2-(5-fluorothiophen-2-yl)-5-(5-methylisothiazol-4-yl)phenyl)sulfamoyl)benzoic acid]
O=C(O)c1ccc(C2CC2)c(S(=O)(=O)Nc2cc(-c3ccns3)ccc2-n2cccc2)c1 [Example 143, 4-cyclopropyl-3-(N-(5-(isothiazol-5-yl)-2-(pyrrol-1-yl)phenyl)sulfamoyl)benzoic acid]
Cc1sncc1-c1ccc(-c2ccccn2)c(NS(=O)(=O)c2cc(C(=O)O)ccc2C2CC2)c1 [Example 144, 4-cyclopropyl-3-(N-(5-(5-methylisothiazol-4-yl)-2-(pyridin-2-yl)phenyl)sulfamoyl)benzoic acid]
O=C(O)c1ccc(C2CC2)c(S(=O)(=O)Nc2cc(-c3cn[nH]c3)ccc2-c2ccccn2)c1 [Example 145]
O=C(O)c1ccc(C2CC2)c(S(=O)(=O)Nc2cc(-c3ccns3)ccc2-c2cccs2)c1 [Example 146, 4-cyclopropyl-3-(N-(5-(isothiazol-5-yl)-2-(thiophen-2-yl)phenyl)sulfamoyl)benzoic acid]
O=C(O)c1ccc(C2CC2)c(S(=O)(=O)Nc2cc(-c3ccns3)ccc2-c2ccc(F)s2)c1 [Example 147, 4-cyclopropyl-3-(N-(2-(5-fluorothiophen-2-yl)-5-(isothiazol-5-yl)phenyl)sulfamoyl)benzoic acid]
Cc1sncc1-c1ccc(-c2ccccc2)c(NS(=O)(=O)c2cc(C(=O)O)ccc2C2CC2)c1 [Example 148, 4-cyclopropyl-3-(N-(4-(5-methylisothiazol-4-yl)-[1,1′-biphenyl]-2-yl)sulfamoyl)benzoic acid]
Cc1sncc1-c1ccc(-c2ccc(Cl)s2)c(NS(=O)(=O)c2cc(C(=O)O)ccc2C2CC2)c1 [Example 149, 3-(N-(2-(5-chlorothiophen-2-yl)-5-(5-methylisothiazol-4-yl)phenyl)sulfamoyl)-4-cyclopropylbenzoic acid]
Cc1sncc1-c1ccc(-n2cccc2)c(NS(=O)(=O)c2cc(C(=O)O)ccc2C2CC2)c1 [Example 150, 4-cyclopropyl-3-(N-(5-(5-methylisothiazol-4-yl)-2-(pyrrol-1-yl)phenyl)sulfamoyl)benzoic acid]
O=C(O)c1ccc(C2CC2)c(S(=O)(=O)Nc2cc(C(F)(F)F)ccc2-c2ccsn2)c1 [Example 151, 4-cyclopropyl-3-(N-(2-(isothiazol-3-yl)-5-(trifluoromethyl)phenyl)sulfamoyl)benzoic acid]
N#Cc1ccc(-c2ncccc2F)c(NS(=O)(=O)c2cc(C(=O)O)ccc2C2CC2)c1 [Example 152, 3-(N-(5-cyano-2-(3-fluoropyridin-2-yl)phenyl)sulfamoyl)-4-cyclopropylbenzoic acid]
N#Cc1ccc(-c2cccc(F)n2)c(NS(=O)(=O)c2cc(C(=O)O)ccc2C2CC2)c1 [Example 153, 3-(N-(5-cyano-2-(6-fluoropyridin-2-yl)phenyl)sulfamoyl)-4-cyclopropylbenzoic acid]
N#Cc1cc(NS(=O)(=O)c2cc(C(=O)O)ccc2C2CC2)c(-c2ccccn2)cc1F [Example 154, 3-(N-(5-cyano-4-fluoro-2-(pyridin-2-yl)phenyl)sulfamoyl)-4-cyclopropylbenzoic acid]
O=C(O)c1ccc(C2CC2)c(S(=O)(=O)Nc2cc(C(F)(F)F)c(F)cc2-n2cccc2)c1 [Example 155, 4-cyclopropyl-3-(N-(4-fluoro-2-(pyrrol-1-yl)-5-(trifluoromethyl)phenyl)sulfamoyl)benzoic acid]
